Structures can show the parent of a compound that is named as a salt. Where two headings read alike, the source gives them in different places.
Legend:
[1] = 16-membered ring
[2] = test system: p-ERK in PANC 04.03 tumor-bearing mice; assay: Tumor Pharmacodynamic Assay (p-ERK inhibition in PANC 04.03 tumors); format: in vivo; settings: Mus musculus; PANC 04.03 tumor-bearing female athymic nude mice; single oral dose 100 mg/kg; tumors harvested 2 hr later; relative to vehicle group
Experimental: Tumor Pharmacodynamic Assays
Inhibitor pharmacodynamic effects were assessed in PANC 04.03 tumor-bearing mice. PANC 04.03 tumor cells (5.0E+06 cells) were injected subcutaneously into the flank of female athymic nude mice in a mixture with Matrigel (BD Bioscience). Mice received a single oral dose of either vehicle or inhibitor (100 mg/kg) when the average tumor size reached -300-600 mm^3 (n=3/group) and harvested 2 hours later. Tumor samples were collected, snap frozen, and processed for analysis by pulverizing with a cryoPREP® Dry Impactor (Covaris). Pulverized samples were resuspended in RIPA lysis buffer containing protease and phosphatase inhibitors and homogenized. Cleared lysates were analyzed using phospho-ERK1/2 and total ERK1/2 whole cell lysate kits (Meso Scale Discovery) according to the manufacturer's protocol. Phospho-ERK1/2 signal was normalized to total ERK1/2 signal for a given sample, and percent inhibition of p-ERK was calculated relative to the vehicle group.

AsPC-1 cells = assay: AsPC-1 CTG Assay (CellTiter-Glo cell viability); format: cell-based, human; settings: AsPC-1, 72 h, first value of the cell, read-out: G12D/C/V Cell Proliferation CTG (72 h) AsPC-1
In short: (§1)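 Human pancreatic AsPC-1 or colon SW620 cells in RPMI 1640 with 10% FBS, seeded overnight, then exposed to serially diluted compound for 72 h at 37 °C. CellTiter-Glo luminescence normalized to DMSO control; IC50 from a 4-parameter logistic model.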

[3] = target: His-tagged KRAS G12D protein (Homo sapiens (Human), UniProt P01116, G12D); assay: KRAS G12D TR-FRET Assay; format: binding; settings: read-out: KRAS G12D Binding IC50
In short: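 His-tagged KRAS G12D (diluted to 20 nM in pH 7.4 HEPES buffer with 10 mM MgCl2 and 10 μM GDP) was preincubated with titrated compound for 30 min at room temperature. Biotinylated KRPep-2d peptide (diluted to 20 nM) was then added for 1 h, and displacement was monitored by TR-FRET.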

[4] = test system: Phosphorylation of ERK1/2 in AsPC-1 cells; assay: Phospho-ERK1/2 MSD Assay; format: cell-based, human; settings: read-out: 2 h p-ERK (AsPC-1 cells), IC50
In short: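 Read-out: MSD electrochemiluminescent detection of phosphorylated ERK1/2 in whole-cell lysates, fitted to a 4-parameter logistic curve for IC50. Prior to lysis, AsPC-1 cells (25,000 per well) received a 2 h compound dose-response at 37 °C.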

MIA PaCa-2 cells = assay: MIA PaCa-2 CTG Assay (CellTiter-Glo cell viability); format: cell-based, human; settings: Homo sapiens; Mia PaCa-2, 72 h; second value of the cell; read-out: G12D/C/V Cell Proliferation CTG (72 h) Mia PaCa-2
In short: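 Human pancreatic carcinoma cells in RPMI 1640 with 10% FBS, seeded at 1.67E+04 cells/mL and left overnight, were treated with serially diluted compound for 72 h at 37° C, 5% CO2. Viability was read by CellTiter-Glo luminescence normalized to DMSO; IC50 came from a 4-parameter logistic fit.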

SW620 cells = assay: SW620 CTG Assay (CellTiter-Glo cell viability); format: cell-based, human; settings: SW620, 72 h, third value of the cell, read-out: G12D/C/V Cell Proliferation CTG (72 h) SW620
In short: as §1

[5] = target: GDP-bound KRAS protein (aa 1-169), containing both G12D and C118A amino acid substitutions (Homo sapiens (Human), UniProt P01116, C118A/G12D); assay: KRAS G12D Coupled Nucleotide Exchange Assay; format: biochemical; settings: read-out: KRAS G12D Coupled Exchange IC50
Chain of GDP-bound KRAS protein (aa 1-169), containing both G12D and C118A amino acid substitutions (P01116 other isoform, or with tags, fused parts or gaps G12D/C118A): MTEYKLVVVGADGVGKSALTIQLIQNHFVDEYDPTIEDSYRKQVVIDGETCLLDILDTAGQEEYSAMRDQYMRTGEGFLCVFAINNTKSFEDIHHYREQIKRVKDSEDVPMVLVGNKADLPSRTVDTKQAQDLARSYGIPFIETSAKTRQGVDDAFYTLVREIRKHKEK

Chain of His-tagged KRAS G12D protein (P01116 other isoform, or with tags, fused parts or gaps G12D): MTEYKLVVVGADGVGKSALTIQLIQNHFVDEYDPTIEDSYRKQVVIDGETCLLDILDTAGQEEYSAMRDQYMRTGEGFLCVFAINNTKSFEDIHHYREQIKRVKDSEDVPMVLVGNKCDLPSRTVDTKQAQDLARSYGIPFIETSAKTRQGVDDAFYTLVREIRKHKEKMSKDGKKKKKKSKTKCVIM

| IC50 (AsPC-1 cells; Homo sapiens, ASPC1, 72 h) | IC50 [3] | IC50 ([4]; Homo sapiens, ASPC1, 2 h) | IC50 (MIA PaCa-2 cells) | IC50 (SW620 cells; Homo sapiens, SW-620) | IC50 [5] | SMILES | inhibition in vivo at 100 mg/kg [2] | further results |
| --- | --- | --- | --- | --- | --- | --- | --- | --- |
|  |  |  |  |  |  | Cc1cc2c(cnn2C2CCCCO2)c2c1CCCn1ncc(n1)C1CCCN(C1)c1nc(OC[C@@]34CCCN3C[C@H](F)C4)nc3c(F)c-2ncc13 (some centres unmarked) |  | ring closure, isolated yield ([1]; from Cc1cc2c(cnn2C2CCCCO2)c(-c2ncc3c(N4CCCC(c5cn[nH]n5)C4)nc(OC[C@@]45CCCN4C[C@H](F)C5)nc3c2F)c1CCCCl, other bond, K2CO3/TBAI, MeCN, 6.9 mM, 85.0 °C): 31% |
|  |  |  |  |  |  | O[C@@H]1C[C@@H]2COCCCCc3c(Cl)cc4[nH]ncc4c3-c3ncc4c(nc(OC[C@@]56CCCN5C[C@H](F)C6)nc4c3F)N(C1)C2 (mixture of isomers) |  | ring closure, isolated yield ([1]; from Oc1nc(OC[C@@]23CCCN2C[C@H](F)C3)nc2c(F)c(-c3c(CCCCOC[C@@H]4CNC[C@H](O)C4)c(Cl)cc4[nH]ncc34)ncc12, snar bond, BroP/DIEA, MeCN/DMSO, 4.7 mM, 25.0 °C): 25% |
|  |  |  |  |  |  | CSc1nc2c3cnc(c(C)c3n1)-c1cc(O)cc3ccc(F)c(c13)CCCC(=O)N[C@]1(C)CCCN2C1 |  | ring closure, yield after HPLC (from CSc1nc(N2CCC[C@@](C)(N)C2)c2cnc(-c3cc(O)cc4ccc(F)c(CCCC(=O)O)c34)c(C)c2n1, amide bond, 16-membered ring, HATU, then Me2NH, DCM/DMA/DMF, 5.6 mM, 25.0 °C, 4.0 h): 32% |
|  |  |  |  |  |  | COCOc1cc2c3c(c(F)ccc3c1)CCCC(=O)N[C@]1(C)CCCN(C1)c1nc(OC)nc3c(F)c-2ncc13 |  | ring closure, yield after HPLC (from COCOc1cc(-c2ncc3c(N4CCC[C@@](C)(N)C4)nc(OC)nc3c2F)c2c(CCCC(=O)O)c(F)ccc2c1, amide bond, 16-membered ring, HATU/DIEA, then HCl/dioxane, DMF, 8.3 mM, 25.0 °C, 2 steps): 5% |
| 6 nM | 5 nM | 1.3 nM | 7 nM | 4 nM | 3 nM | Cc1cc2[nH]ncc2c2c1CCOC(=O)O[C@H]1C[C@@]3(CCCN(C3)c3nc(OC[C@@]45CCCN4C[C@H](F)C5)nc4c(F)c-2ncc34)C1 [Example 194, (1S,3R)-32-fluoro-24-(((2R,7aS)-2-fluorotetrahydro-1H-pyrrolo[1,2-a]pyrrol-7a(5H)-yl)methoxy)-10-methyl-4,6-dioxa-13,14,19,23,25,27-hexaazaheptacyclo[25.3.1.1~1,3~.1~18,22~.0~9,17~.0~12,16~.0~21,26~]tritriaconta-9,11,14,16,18(32),19,21,23,25-nonaen-5-one] | 88% |  |
| 30 nM | 3 nM | 2 nM | 1 nM | 10 nM | 2 nM | O=C1OCCCc2c(Cl)cc3[nH]ncc3c2-c2ncc3c(nc(OC[C@@]45CCCN4C[C@H](F)C5)nc3c2F)N2CCOC[C@H](C2)O1 [Example 99, (26S)-18-Chloro-32-fluoro-4-(((2R,7aS)-2-fluorotetrahydro-1H-pyrrolo[1,2-a]pyrrol-7a(5H)-yl)methoxy)-23,25,28-trioxa-1,3,5,9,14,15-hexaazahexacyclo[24.4.1.1˜6,10˜.0˜2,7˜.0˜11,19˜.0˜12,16˜]dotriaconta-2,4,6,8,10(32),11,13,16,18-nonaen-24-one] | 91% |  |
| 80 nM | 2 nM | 9 nM | 20 nM | 20.8 nM | 1 nM | Cc1cc2[nH]ncc2c2c1CCCOC(=O)O[C@@H]1COCCN(C1)c1nc(OC[C@@]34CCCN3C[C@H](F)C4)nc3c(F)c-2ncc13 [Example 97, (26S)-32-fluoro-4-(((2R,7aS)-2-fluorotetrahydro-1H-pyrrolo[1,2-a]pyrrol-7a(5H)-yl)methoxy)-18-methyl-23,25,28-trioxa-1,3,5,9,14,15-hexaazahexacyclo[24.4.1.1~6,10~.0~2,7~.0~11,19~.0~12,16~]dotriaconta-2,4,6,8,10(32),11,13,16,18-nonaen-24-one] | 85% |  |
|  | 238 nM |  |  |  | 342 nM | C[C@@]12CCCN(C1)c1nc(OC[C@@]34CCCN3C[C@H](F)C4)nc3c(F)c(ncc13)-c1cccc3c1N(CCCC(=O)N2)CCC3 [Example 13, (15R)-31-Fluoro-8-(((2R,7aS)-2-fluorotetrahydro-1H-pyrrolo[1,2-a]pyrrol-7a(5H)-yl)methoxy)-15-methyl-3,7,9,11,16,21-hexaazahexacyclo[19.7.1.1˜2,6˜.1˜11,15˜.0˜5,10˜.0˜25,29˜]hentriaconta-1(29),2(31),3,5,7,9,25,27-octaen-17-one bis(2,2,2-trifluoroacetate)] |  | ring closure, yield after HPLC (from C[C@@]1(N)CCCN(c2nc(OC[C@@]34CCCN3C[C@H](F)C4)nc3c(F)c(-c4cccc5c4N(CCCC(=O)O)CCC5)ncc23)C1, amide bond, 16-membered ring, HATU/TEA, DCM/THF/DMA, 0.98 mM, 25.0 °C): 33% |
| 5 nM | 4 nM | 0.7 nM | 2 nM | 3 nM | 1 nM | O=C1OCCc2c(Cl)cc3[nH]ncc3c2-c2ncc3c(nc(OC[C@@]45CCCN4C[C@H](F)C5)nc3c2F)N2CCC[C@]3(C2)C[C@H](C3)O1 [Example 249, (1S,3R)-10-chloro-32-fluoro-24-(((2R,7aS)-2-fluorotetrahydro-1H-pyrrolo[1,2-a]pyrrol-7a(5H)-yl)methoxy)-4,6-dioxa-13,14,19,23,25,27-hexaazaheptacyclo[25.3.1.1~1,3~.1~18,22~.0~9,17~.0~12,16~.0~21,26~]tritriaconta-9,11,14,16,18(32),19,21,23,25-nonaen-5-one] | 90% |  |
|  |  |  |  |  |  | Fc1c2ncc3c(nc(OC[C@@]45CCCN4C[C@H](F)C5)nc13)N1CCCC3(CC(C3)OCCCCc3c(Cl)cc4[nH]ncc4c3-2)C1 |  | ring closure, yield after HPLC (from Fc1c(-c2c(CCCCOC3CC4(CCCNC4)C3)c(Cl)cc3[nH]ncc23)ncc2c(OCC(F)(F)F)nc(OC[C@@]34CCCN3C[C@H](F)C4)nc12, snar bond, 17-membered ring, Cs2CO3, MeCN/DMF, 5.0 mM, 80.0 °C): 5% |

| SMILES | IC50 (AsPC-1 cells; Homo sapiens, ASPC1, 72 h) | IC50 [3] | IC50 ([4]; Homo sapiens, ASPC1, 2 h) | IC50 (MIA PaCa-2 cells) | IC50 (SW620 cells; Homo sapiens, SW-620) | IC50 [5] | inhibition in vivo at 100 mg/kg [2] | further results |
| --- | --- | --- | --- | --- | --- | --- | --- | --- |
| O=C1CCCc2cccc3cc(O)cc(c23)-c2ncc3c(nc(OC[C@@]45CCCN4C[C@H](F)C5)nc3c2F)N2CCC[C@H](C2)N1 [Example 1, (15R)-31-Fluoro-8-(((2R,7aS)-2-fluorotetrahydro-1H-pyrrolo[1,2-a]pyrrol-7a(5H)-yl)methoxy)-27-hydroxy-3,7,9,11,16-pentaazahexacyclo[19.7.1.1˜2,6˜.1˜11,15˜.0˜5,10˜.0˜25,29˜]hentriaconta-1(28),2(31),3,5,7,9,21,23,25(29),26-decaen-17-one bis(2,2,2-trifluoroacetate)] | 1930 nM | 5 nM | 196 nM |  |  | 4 nM |  | ring closure, yield after HPLC (from N[C@@H]1CCCN(c2nc(OC[C@@]34CCCN3C[C@H](F)C4)nc3c(F)c(-c4cc(O)cc5cccc(CCCC(=O)O)c45)ncc23)C1, amide bond, 16-membered ring, HATU/DIEA, then NH3/MeOH, DMF, 8.9 mM, 25.0 °C, 1.0 h): 7% |
| Fc1c2ncc3c(nc(OC[C@@]45CCCN4C[C@H](F)C5)nc13)N1CCO[C@@H](COCCCCc3c(Cl)cc4[nH]ncc4c3-2)C1 [Example 135, (17R)-9-Chloro-30-fluoro-24-(((2R,7aS)-2-fluorotetrahydro-1H-pyrrolo[1,2-a]pyrrol-7a(5H)-yl)methoxy)-15,18-dioxa-5,6,21,23,25,29-hexaazahexacyclo[24.3.1.1˜17,21.0˜2,10˜.0˜3,7˜.0˜22,27˜]hentriaconta-1(30),2,4,7,9,22,24,26,28-nonaene trifluoroacetate] |  | 3 nM |  |  |  | 2 nM |  | IC50 (AsPC-1 cells): 250 nM; IC50 ([4]; 2 h): 17 nM; IC50 (SW620 cells): 55.1 nM; ring closure, yield after HPLC (from Oc1nc(OC[C@@]23CCCN2C[C@H](F)C3)nc2c(F)c(-c3c(CCCCOC[C@H]4CNCCO4)c(Cl)cc4[nH]ncc34)ncc12, snar bond, 16-membered ring, BroP/DIEA, MeCN/DMSO, 4.7 mM, 25.0 °C): 39% |
